Experiments:
[1] = target: T1, frataxin in FRDA 798 and FRDA 214 lymphoblasts (Homo sapiens, UniProt Q16595); assay: Frataxin accumulation in FRDA patient-derived lymphoblasts FRDA 798 and FRDA 214 (western blot); type: cell-based; conditions: for mature frataxin accumulation in FRDA patient cells: FRDA 798 and FRDA 214 lymphoblasts, 10 μM, 5 days, vs vehicle
T1 construct: GM16798; host or cells: FRDA 798, FRDA 214 and FRDA 203 patient-derived lymphoblasts
T1 sequence (Q16595 42-210): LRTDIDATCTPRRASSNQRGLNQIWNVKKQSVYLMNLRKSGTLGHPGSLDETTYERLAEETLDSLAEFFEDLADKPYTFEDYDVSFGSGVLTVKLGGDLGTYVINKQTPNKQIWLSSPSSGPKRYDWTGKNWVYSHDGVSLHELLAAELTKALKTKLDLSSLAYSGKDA
Experimental: (§1) Cell culture and transfections. Human embryonic kidney HEK-293 cells were cultured in Dulbecco's modified Eagle's medium (DMEM) supplemented with 10% fetal bovine serum (FBS). HEK-293 cells were transfected using Lipofectamine 2000 reagents (Invitrogen), according to the manufacturer's instructions. Cells were plated on 6 cm dishes and transfected with 8 μg of total DNA (4 μg of pIRES-frataxin and 4 μg of HA-Ub). The day after transfection, cells were treated for 24 h with 10 μM UCM together with 10 μM proteasome inhibitor MG132 and 50 ng/ml deubiquitinating enzyme (DUB) inhibitor Ub-aldehyde. HEK-293 Flp-In cells (Invitrogen) are HEK-293 variants allowing the stable and isogenic integration and expression of a transfected gene. The HEK-293 clones stably expressing frataxin^1-210 or frataxin^K147R were previously described (Condo et al., 2007; Rufini et al., 2011). FRDA 214 (GM16214) and FRDA 798 (GM16798) lymphoblasts, from clinically affected FRDA patients, as well as FRDA 215 (GM16215) and FRDA 241 (GM16241) lymphoblasts, from the correspondent heterozygous clinically unaffected sibling, were obtained from Coriell Cell Repositories (Camden, N.J., USA) and were cultured in RPMI supplemented with 15% FBS.
Immunoblotting. Total cell extracts were prepared in IP buffer (50 mM Tris-HCl, pH 7.5, 150 mM NaCl, 1% Nonidet P-40, 5 mM EDTA, 5 mM EGTA) supplemented with Complete protease inhibitor cocktail (Roche Diagnostics). […] Protein extract (50 μg) was separated by 12% SDS-PAGE, blotted onto a nitrocellulose membrane and detected with specific antibodies. The immunoreactive bands were detected by ECL (GE Healthcare) and imaged with a ChemiDoc XRS system (Bio-Rad Laboratories). […]
UCM compounds promote frataxin accumulation in FRDA cells and rescue the aconitase defect. […] Frataxin levels were quantitated by western blot analysis on whole cell extracts using anti-frataxin antibody, or anti-tubulin, as a loading control. The relative frataxin abundance was quantitated by densitometric analysis and normalized with tubulin levels. […]

frataxin ubiquitination = target: T2, frataxin ubiquitination (Homo sapiens, UniProt Q16595); assay: In vivo (in-cell) frataxin ubiquitination assay in HEK-293 cells co-transfected with HA-Ub and frataxin; type: cell-based; conditions: HEK-293, HA-Ub + frataxin^1-210, 10 μM UCM, with MG132 and Ub-aldehyde
T2 construct: 293 cells were transiently co-transfected with HA-Ub and frataxin^1-210; expressed in transfected cells; host or cells: HEK-293 cells, transient transfection (pIRES-frataxin plus HA-Ub)
T2 sequence (Q16595 42-210): T1 sequence (Q16595 42-210)
Experimental: Cell culture and transfections. Human embryonic kidney HEK-293 cells were cultured in Dulbecco's modified Eagle's medium (DMEM) supplemented with 10% fetal bovine serum (FBS). HEK-293 cells were transfected using Lipofectamine 2000 reagents (Invitrogen), according to the manufacturer's instructions. Cells were plated on 6 cm dishes and transfected with 8 μg of total DNA (4 μg of pIRES-frataxin and 4 μg of HA-Ub). The day after transfection, cells were treated for 24 h with 10 μM UCM together with 10 μM proteasome inhibitor MG132 and 50 ng/ml deubiquitinating enzyme (DUB) inhibitor Ub-aldehyde. […]
Immunoblotting. […] Protein extract (50 μg) was separated by 12% SDS-PAGE, blotted onto a nitrocellulose membrane and detected with specific antibodies. The immunoreactive bands were detected by ECL (GE Healthcare) and imaged with a ChemiDoc XRS system (Bio-Rad Laboratories). […]
UCMs prevent frataxin ubiquitination. To test whether the new compounds promote frataxin accumulation by preventing its ubiquitin/proteasome-dependent degradation, their impact on frataxin ubiquitination was evaluated. […] The ubiquitination status of frataxin was evaluated by SDS-PAGE of total cell lysates and anti-frataxin immunoblotting. […] Ubiquitination level was measured as the ratio between the levels of ubiquitinated frataxin and frataxin precursor. […]

[2] = target: T3, frataxin^1-210 in HEK-293 Flp-In cells (293-frataxin) (Homo sapiens, UniProt Q16595); assay: Frataxin precursor / mature frataxin accumulation in 293-frataxin cells (western blot); type: cell-based; conditions: 10 μM; for frataxin precursor accumulation: 24 hrs, compared with UCM2 and MG132; for mature frataxin accumulation: 72 hrs (3 days)
T3 construct: 293 Flp-In cells stably expressing frataxin^1-210 were treated for 24 hrs; expressed in transfected cells
T3 sequence (Q16595 42-210): T1 sequence (Q16595 42-210)
Experimental: as §1
Immunoblotting. Total cell extracts were prepared in IP buffer (50 mM Tris-HCl, pH 7.5, 150 mM NaCl, 1% Nonidet P-40, 5 mM EDTA, 5 mM EGTA) supplemented with Complete protease inhibitor cocktail (Roche Diagnostics). For in vivo detection of ubiquitin conjugates, 10 μM MG132, 50 ng/ml Ub-aldehyde and 2 mM NEM were added to the lysis buffer. Protein extract (50 μg) was separated by 12% SDS-PAGE, blotted onto a nitrocellulose membrane and detected with specific antibodies. The immunoreactive bands were detected by ECL (GE Healthcare) and imaged with a ChemiDoc XRS system (Bio-Rad Laboratories). Densitometric analysis was performed using the ImageLab 4.1 Software (Bio-Rad Laboratories).
UCMs increase frataxin levels. To validate UCM activity, UCMs were tested their effect in human HEK-293 cells stably expressing single copy frataxin (293-frataxin). These cells allow the detection of all forms of frataxin, including the frataxin precursor. Compounds that were able to enhance frataxin precursor levels were synthesized, further chemically modified according to the docking model and tested again in 293-frataxin. Approximately 200 new candidate UCMs were tested in functional assays. Through this iterative process, new UCMs that promote frataxin precursor with surprising efficiency were identified.
293 Flp-In cells stably expressing frataxin^1-210 were treated for 24 hrs with 10 μM of the indicated UCM or 10 μM MG132 (MG). Total cell extracts were resolved on SDS-PAGE and analyzed with anti-frataxin antibody, or anti-tubulin, as a loading control. Pre: precursor; tub: tubulin.
293 Flp-In cells stably expressing frataxin^1-210 were treated for 72 hrs with 10 μM of the indicated UCM. Total cell extracts were resolved on SDS-PAGE and analyzed with anti-frataxin antibody, or anti-tubulin, as a loading control. Pre: precursor, int: intermediate, mat: mature; tub: tubulin.

[3] = system: aconitases activity in FRDA 214 lymphoblasts; assay: Aconitase activity rescue in FRDA lymphoblasts; type: cell-based, human; conditions: 5 days treatment
Experimental: Enzyme assays. For determinations of aconitases and citrate synthase activity, FRDA lymphoblasts were washed twice with ice-cold Dulbecco's Phosphate Buffered Saline (DPBS) and lysed in CelLytic M buffer (Sigma-Aldrich) supplemented with Complete protease inhibitor cocktail EDTA-free (Roche) and 2 mM trisodium citrate. Citrate was included to prevent the inactivation of iron-sulfur cluster of aconitases. Total aconitase activity was measured spectrophotometrically at 340 nm using the BIOXYTECH Aconitase-340™ Assay (OxisResearch™ 21041). The assay reactions, containing 150 μg of cell extract, were performed following the supplier's procedure, with the exception of temperature incubation at 25° C. Citrate synthase activity was assessed using 15 μg of cell extract with the Citrate Synthase Assay Kit (Sigma-Aldrich CS0720).
The aconitase activities were normalized with respect to citrate synthase ratios; one milliunit of enzyme was defined as the amount of protein that converted 1 nmol of NADP^+ in 1 min at 25° C.
Moreover, to validate a functional recovery of frataxin levels, rescue of cellular aconitases activity was evaluated in FRDA cells upon treatment with UCMs. […] Aconitases activity in cells derived from an unaffected carrier sibling (FRDA 215) is also shown for comparison.

[4] = target: T4, Human recombinant frataxin precursor (aa 1-210) (Homo sapiens, UniProt Q16595); assay: Steady-state Trp fluorescence binding of UCMs to recombinant frataxin precursor; conditions: for change of protein Trp fluorescence (ΔF/F0): 2 μM frataxin precursor, ligand 0.5 to 25 μM, 20° C; for half-saturation binding constant, L1/2: 2 μM native frataxin precursor, numbers only in FIG. 5
T4 construct: Human recombinant frataxin precursor (aa 1-210) was expressed and purified; purchased GenScript Corp., N.J., USA
T4 sequence (Q16595 1-210): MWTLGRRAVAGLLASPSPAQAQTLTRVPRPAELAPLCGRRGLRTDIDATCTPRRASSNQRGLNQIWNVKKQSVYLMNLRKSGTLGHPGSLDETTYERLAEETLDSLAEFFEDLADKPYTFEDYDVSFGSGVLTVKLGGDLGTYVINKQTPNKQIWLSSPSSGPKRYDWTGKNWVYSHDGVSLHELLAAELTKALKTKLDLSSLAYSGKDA
Experimental: Steady-state fluorescence measurements. Human recombinant frataxin precursor (aa 1-210) was expressed and purified by GenScript Corp., N.J., USA. Steady-state fluorescence spectra were recorded at 20° C. using an ISS PC1 fluorometer (Iss Inc, Champain, Ill. Usa). The affinity of frataxin for the ligands studied in this paper was determined by monitoring the decrease in Trp fluorescence upon the addition of these molecules to solutions. The concentration of the protein was 2 μM while the concentration of the ligands varied from 0.5 to 25 μM. At the excitation wavelength of 280 nm, emission spectra were recorded between 290 and 440 nm, using a 4×4 mm path-length quartz fluorescence microcuvette (Hellma GmbH & Co., Müllheim/Baden, Germany). The spectra were corrected using an instrument correction curve obtained with standard fluorescent compounds such as N-acetyl tryptophanamide (NATA). All measurements were also corrected for the inner-filter effect. To simulate the absorption of ligand molecules at the excitation and the emission wavelengths, two cuvettes (2 mm optical length), containing a solution of ligands in buffer, were placed along the excitation and emission pathways. The fluorescence of NATA was thus measured varying the concentration of quencher and four correction curves (one for each ligand) were obtained.
Data were then plotted as fractional loss of Trp fluorescence (ΔF/F0) versus ligand concentration. Experimental data were analyzed by nonlinear regression through a hyperbolic binding isotherm, using the Kaleidagraph program (Synergy Software).
UCMs interact with frataxin. Ubiquitin-competing molecules were selected through structure-based virtual screening for their potential ability to interact with frataxin on its ubiquitination site. Since they are in fact able to prevent frataxin ubiquitination and to interfere with its K147-dependent degradation, confirmation of their ability to physically interact with frataxin was sought. Therefore, the interaction propensities of frataxin with these molecules were investigated by fluorescence spectroscopy through the analysis of the changes of the signal of the protein tryptophan residues in the presence of the different compounds.
The graphs represent the fractional loss of the protein fluorescence intensity (ΔF/F0), in the presence of different concentration of ligand, versus the ratio between ligand and frataxin. The interaction with UCM53 was also analyzed in the case of frataxin precursor previously denaturated in 3M guanidinium hydrochloride (lower right panel). The half-saturation binding constant, L1/2 (μM), of frataxin precursor with different UCM is indicated in each panel.

[5] = target: T5, frataxin in FRDA 203 lymphoblast cell line (Homo sapiens, UniProt Q16595); assay: Frataxin accumulation in FRDA 203 patient-derived lymphoblasts (western blot); type: cell-based; conditions: FRDA 203 lymphoblasts, 1 μM, 4 days, vs DMSO; five experiments, P<0.05
T5 construct: GM16798; host or cells: FRDA 798, FRDA 214 and FRDA 203 patient-derived lymphoblasts
T5 sequence (Q16595 42-210): T1 sequence (Q16595 42-210)
Experimental: The efficacy of a specific compound, UCM166, was tested in FRDA patients-derived cells. (The structure of UCM166 is as shown previously.) FRDA patient-derived lymphoblast cell line FRDA 203 was cultured in the presence of 1 μM of UCM166 or DMSO alone (as a control) for 4 days. Total cell extracts were resolved on SDS-PAGE and analyzed in a western blot with anti-frataxin antibody, or anti-tubulin, as a loading control. FIG. 7 represents the relative frataxin abundance as quantified by densitometric analysis and normalized with tubulin levels. The data represent the mean±S.E.M. from five different independent experiments. P-value was calculated with Student's t-test and was statistically significant (**P<0.05) compared to non-treated conditions.

SMILES	toxicity in long-term cell treatment ([1]; FRDA lymphoblasts, long-term (5 days) treatment)	frataxin ubiquitination (ratio of ubiquitinated frataxin to frataxin precursor) (frataxin ubiquitination)	frataxin precursor accumulation [2]	mature frataxin accumulation [2]	mature frataxin accumulation in FRDA patient cells [1]	aconitases activity (normalized to citrate synthase) [3]	change of protein Trp fluorescence (ΔF/F0) [4]	half-saturation binding constant, L1/2 [4]	fluorescence changes with denatured protein ([4]; frataxin precursor denaturated in 3M guanidinium hydrochloride)	relative frataxin abundance (normalized with tubulin) [5]
C/C(=N\NC(=O)c1cc2ccccc2cc1O)c1ccc2c(c1)Nc1ccccc1S2 [UCM71]	toxicity over a long-term treatment	significantly abrogate frataxin ubiquitination	induce frataxin precursor accumulation	accumulation of mature frataxin						
C/C(=N\NC(=O)c1ccccc1)c1ccc2c(c1)Nc1ccccc1S2 [UCM108]			induce frataxin precursor accumulation	accumulation of mature frataxin	significant accumulation of mature frataxin	significant increase in aconitases activity	strong fluorescence changes	lowest binding affinity constants		
C/C(=N\NC(=O)c1ccc(C)cc1C)c1ccc2c(c1)Nc1ccccc1S2 [UCM53]		significantly abrogate frataxin ubiquitination	induce frataxin precursor accumulation	accumulation of mature frataxin	significant accumulation of mature frataxin		strong fluorescence changes	lowest binding affinity constants	completely lost	
COc1ccccc1C(=O)N/N=C(\C)c1ccc2c(c1)Nc1ccccc1S2 [UCM166]										efficiently promotes frataxin accumulation

Source: patent US10442779B2, “Compositions and methods for treating Friedreich's ataxia” (Fratagene Therapeutics S.R.L., priority 2014, dated 2019)
